# Legend:
# mice [1] = assay: Motor incoordinating activity (rotating rod); assay type: in vivo, mouse (ddY-type male mice); settings: Mus musculus, 0.05 h, PO, 5.5 rpm, within 3 minutes, read-out: ED50 motor incoordination, rotating rod
# Experimental: (§1) In the following tests, the pharmacological actions of the compounds were tested by using six mice (ddY-type male mice) for each dosage level, and ED50 values were determined. In the determination of ED50 values, the dosages of the test compounds were increased or decreased by a common ratio of 3 as required, and 3 or 4 dosage levels were used. The calculation of the ED50 values was made on the basis of the Litchfield-Wilcoxon method [J. Pharmacol. Exp. Therap., 96, 99 (1949)].
# (6) Motor incoordinating activity
# Mice which could stay for more than 3 minutes on a rotating rod having a diameter of 3.0 cm and rotating at a speed of 5.5 rpm. The subjects were orally administered with the test compound, and then at intervals of 30 minutes, they were placed on the rotating rod. Examination was made as to whether they slipped down within 3 minutes.
# mice [2] = assay: Anti-pentylene tetrazole convulsion activity; assay type: in vivo, mouse (ddY-type male mice); settings: Mus musculus, PO, pentylene tetrazole 125 mg/kg s.c. 1 hour later, read-out: ED50 anti-convulsion, pentetrazol shock
# Experimental: as §1
# (1) Anti-pentylene tetrazole convulsion activity
# Each of test compounds suspended in a 5% gum arabic solution was orally administered to mice. One hour later, pentylene tetrazole in an amount of 125 mg/kg was administered subcutaneously. Then, over the course of 30 minutes, the presence or absence of convulsion in the subjects was examined.
# mice [3] = assay: Taming activity (fighting mouse); assay type: in vivo, mouse (ddY-type male mice); settings: PO, electroshock 100 V, 3 mA
# Experimental: as §1
# This was determined by a partially modified version of the method of Tedeschi et al. [J. Pharmacol. Exp. Therap., 125, 28 (1959)]. Two mice different in body weight by less than 1 gram were placed in a fighting device, and electroshock (100 V, 3 mA, 0.45 Hz, 0.5 sec) was applied for 3 minutes. […] Then, at intervals of 30 minutes, electroshock was applied under the above conditions, and the presence or absence of fighting reaction in the subjects was examined.
# mice [4] = assay: Potentiation of thiopental hypnosis (sedation); assay type: in vivo, mouse (ddY-type male mice); settings: Mus musculus, 1 h, PO, sodium thiopental 50 mg/kg i.p., sleeping time prolonged to two times
# Experimental: as §1
# (4) Potentiation of thiopental hypnosis
# The subjects were orally administered with the test compound. One hour later, sodium thiopental in an amount of 50 mg/kg was administered intraperitoneally. The dosage which prolonged the sleeping time (the period of loss of righting reflex) to two times that in the case of a group administered only with sodium thiopental was determined.
# mice [5] = assay: Muscle relaxant activity (inclined screen); assay type: in vivo, mouse (ddY-type male mice); settings: Mus musculus, PO, plate inclined at 70°, 30 seconds, read-out: ED50 muscle relaxation, inclined screen
# Experimental: as §1
# (5) Muscle relaxant activity
# Mice were placed on a wooden plate having a smooth surface and being inclined at an angle of 70°, and those which could stay on the initially placed positions for more than 30 seconds were selected. The selected subjects were orally administered with the test compound, and placed on the inclined plate. Examination was made as to whether the mice slipped down within 30 seconds.
# mice [6] = assay: Anti-electroshock convulsant activity (maximal electroshock); assay type: in vivo, mouse (ddY-type male mice); settings: Mus musculus, PO, electroshock 30 mA, 200 Hz 1 hour later, read-out: ED50 anti-convulsion, maximal electroshock
# Experimental: as §1
# (3) Anti-electroshock convulsant activity
# The subjects were orally administered with the test compound. One hour later, electroshock (30 mA, 200 Hz, 1 msec) was applied for 0.2 second through both ears, and the presence or absence of tonic extensor convulsion was examined.
# [7] = Pharmacological / central nervous system depressant actions, general statement; assay type: in vivo; settings: anti-anxietic, sedative, hypnotic, muscle relaxant, anti-convulsant actions
# mice [8] = assay: Acute toxicity; assay type: in vivo, mouse (male ddY-type mice); settings: one week observation
# Experimental: A test compound was suspended in a 5% solution of gum arabic, and the suspension was administered to a group of 2 to 4 male ddY-type mice in a dose of 1000, 2000, and 3000 mg/kg, respectively. The conditions of the subjects were observed over a period of one week after administration, and the acute toxicity was examined.
Structure (SMILES),ED50 (mice [1]) [mg/kg],ED50 (mice [2]) [mg/kg],ED50 (mice [3]) [mg/kg],ED50 (mice [4]) [mg/kg],ED50 (mice [5]) [mg/kg],ED50 (mice [6]) [mg/kg],Pharmacological actions in words [7],Acute toxicity: death of the subjects (mice [8]; 3000 mg/kg),Acute toxicity: death of the subjects (mice [8]; 1000 mg/kg)
"Clc1ccc2c(c1)C(c1ccccc1Cl)=NCc1cccn1-2 [Comparison (R5=Cl, R6=Cl, R7=H), reference compound]",> 100,> 100,> 100,18,> 100,> 100,,,
"Clc1ccc2c(c1)C(c1ccccc1)=NCc1cccn1-2 [Comparison (R5=Cl, R6=H, R7=H), 8-Chloro-6-phenyl-4H-pyrrolo[1,2-a][1,4]benzodiazepine, reference compound]",> 100,78,> 100,44,> 100,> 100,does not substantially show those pharmacological actions which are common to many other known benzodiazepines,,
"c1ccc(C2=NCc3cccn3-c3ccccc32)cc1 [Comparison (R5=H, R6=H, R7=H), reference compound]",> 100,> 100,78,55,> 100,> 100,,,
"Cc1ccc2n1-c1ccc(Cl)cc1C(c1ccccc1Cl)=NC2 [Compound 1, 8-chloro-6-(2-chlorophenyl)-1-methyl-4H-pyrrolo[1,2-a][1,4]benzodiazepine]",100,20,11,2.8,> 100,> 100,,,
"Cc1ccc2n1-c1ccc(Cl)cc1C(c1ccccc1F)=NC2 [Compound 2, 8-chloro-6-(2-fluorophenyl)-1-methyl-4H-pyrrolo[1,2-a][1,4]benzodiazepine]",> 100,36,55,6.9,> 100,> 100,,,
"Cc1cc2n(c1C)-c1ccc(Cl)cc1C(c1ccccc1F)=NC2 [Compound 3, 8-chloro-1,2-dimethyl-6-(2-fluorophenyl)-4H-pyrrolo[1,2-a][1,4]benzodiazepine]",> 100,10,17,10,> 100,> 100,,,
"Cc1cc2n(c1C)-c1ccc(Cl)cc1C(c1ccccc1Cl)=NC2 [Compound 4, 8-chloro-6-(2-chlorophenyl)-1,2-dimethyl-4H-pyrrolo[1,2-a][1,4]benzodiazepine]",40,6.5,4.8,2.6,> 100,> 100,,,
"Cc1cc2n(c1C)-c1ccc(Cl)cc1C(c1ccccc1)=NC2 [Compound 5, 8-chloro-1,2-dimethyl-6-phenyl-4H-pyrrolo[1,2-a][1,4]benzodiazepine]",> 100,13.5,≥ 30,21,> 100,> 100,,,
"CCc1cc2n(c1C)-c1ccc(Cl)cc1C(c1ccccc1Cl)=NC2 [Compound 6, 8-chloro-6-(2-chlorophenyl)-2-ethyl-1-methyl-4H-pyrrolo[1,2-a][1,4]benzodiazepine]",23.5,3.4,5.5,0.8,14,> 30,,,
"CCc1cc2n(c1C)-c1ccc(Cl)cc1C(c1ccccc1F)=NC2 [Compound 7, 8-chloro-2-ethyl-6-(2-fluorophenyl)-1-methyl-4H-pyrrolo[1,2-a][1,4]benzodiazepine]",> 100,5.5,5.5,2.2,30,> 30,,,
"CCc1cc2n(c1C)-c1ccc(Cl)cc1C(c1c(F)cccc1F)=NC2 [Compound 8, 8-chloro-2-ethyl-6-(2,6-difluorophenyl)-1-methyl-4H-pyrrolo[1,2-a][1,4]benzodiazepine]",> 100,11.2,12.5,1.9,69,> 30,,,
"Cc1cc(C)n2c1CN=C(c1ccccc1Cl)c1cc(Cl)ccc1-2 [Compound 9, 8-chloro-6-(2-chlorophenyl)-1,3-dimethyl-4H-pyrrolo[1,2-a][1,4]benzodiazepine]",15.5,1.8,1.6,0.34,8.2,100,,did not cause any death,
"Cc1cc(C)n2c1CN=C(c1ccccc1F)c1cc(Cl)ccc1-2 [Compound 10, 8-chloro-1,3-dimethyl-6-(2-fluorophenyl)-4H-pyrrolo[1,2-a][1,4]benzodiazepine]",> 30,5.5,8.8,2.4,21.5,> 100,,,
"Cc1cc(C)n2c1CN=C(c1c(F)cccc1F)c1cc(Cl)ccc1-2 [Compound 11, 8-chloro-6-(2,6-difluorophenyl)-1,3-dimethyl-4H-pyrrolo[1,2-a][1,4]benzodiazepine]",15.5,2,1.6,0.7,10,88,,did not cause any death,
"CN1C(=O)CN=C(c2ccccc2)c2cc(Cl)ccc21 [Diazepam, reference compound]",,0.7,1.6,0.3,1,8.8,,,caused half of the mice to die

# — patent US4169150A, “Benzodiazepine derivatives and pharmaceutical compositions containing said derivatives” (Teijin Limited, priority 1975, dated 1979)
